Data on 13 molecules can be found in US4508730A, “1,7-Dihydro-pyrrolo[3,4-e][1,4]diazepin-2(3H)-one derivatives a process for preparing them and their use as anticonvulsant and anti-anxiety agents” (Gruppo Lepetit S.p.A., priority 1982, dated 1985).

The nature of assay [1]: antipentylenetetrazole bioassay in mice. The assay is classed as in vivo. As to conditions: Mus musculus, 2 h; for responders at 100 mg/kg: sc, 100 mg/kg compound 30 minutes before fatal dose of pentylenetetrazole (140 mg/kg s.c.), read-out: protection against pentylenetetrazole (animals still alive two hours after administration); for ED50: ip, i.p., pentylenetetrazole 140 mg/kg s.c., read-out: ED50 (dose at which 50% of the treated animals are protected). The method, then:
To evaluate the anticonvulsant activity the compounds of the present invention have been submitted to the antipentylenetetrazole bioassay in mice. The experiments have been carried out by following essentially the methodology described by Berger in J. Pharm. Exptl. Ther. 104, 468, (1952). More particularly, a fatal dose of pentylenetetrazole (140 mg/kg s.c.) was administered to groups of ten mice each, treated, 30 minutes before the administration of the convulsant agent, with a selected dose (100 mg/kg) of the potential anticonvulsant compound. […] Since the animals of the control group died within 30 minutes, the effectiveness of the compounds tested was expressed as the number of animals of the group which were still alive two hours after the administration of pentylenetetrazole, out of the total number of animals of the group (10). In this experiment the compounds of examples 1,2,8, 9, 10, 11, 13, 14, 15, 16, and 17 were fully effective giving a 100% protection against pentylenetetrazole.

For assay [2], the target named is benzodiazepine receptors. Nature of the assay: "benzodiazepine receptors" test, displacement of ^3 H-Diazepam from rat brain receptors. The assay is classed as binding. As to conditions: ^3 H-Diazepam displacement, read-out: In vitro Ki. The method, then:
The anti-anxiety activity of the compounds of the present invention was shown by submitting the compounds to the "benzodiazepine receptors" test.
These experiments were carried out by following the method described by H. Mohler and T. Okada in Life Sciences, Vol. 20, 2101-2110 (1977).

The target in assay [3] is GABA receptor. Briefly: GABA receptor assay, displacement of ^3 H-GABA. The class given is binding. The settings on record: for IC50: ^3 H-GABA displacement; for displacement of ^3 H-GABA from its receptors: at micromolar concentrations. The method, then:
Furthermore some of the compounds of the present invention have been tested in the GABA receptor assay. In this test which was carried out by following the methodology described by M. Herschel and R. J. Baldessarini in Life Sciences, 24, 1849-1854, (1979), the compounds of examples 3 and 15 resulted to be active in displacing more than 50% of ^3 H-GABA from its receptors at micromolar concentrations. […] (As for the GABA's mediating effect of the anxiolytic action of benzodiazepines, see for instance S. J. Enna--Biochemical Pharmacology--30, No. 9, 907-913, (1981)).

Structures can show the parent of a compound that is named as a salt.

Turning to `Cc1c2c(cn1C)NC(=O)C(OC(=O)CCC(=O)O)N=C2c1ccccc1` (centres unmarked) [Example 14, 1,4-butandioic acid 1-[1,3,7-trihydro-6,7-dimethyl-2-oxo-5-phenyl-pyrrol[3,4-e][1,4]diazepinyl]ester], the responders at 100 mg/kg in assay [1] came out at 100%.

For the molecule `CCOC(=O)CCCNC1N=C(c2ccccc2Cl)c2c(cn(C)c2C)N(C)C1=O` (centres unmarked) [Example 18, 5-(2-chlorophenyl)-3-[[3-(ethoxycarbonyl)propyl]amino]-1,7-dihydro-1,6,7-trimethyl-pyrrolo[3,4-e][1,4]diazepin-2(3H)-one], the Ki in assay [2] was determined as 46.1 nM.

On to `Cc1c2c(cn1C)N(C)C(=O)C(OC(=O)c1ccccc1)N=C2c1ccccc1Cl` (centres unmarked) [Example 1, 5-(2-chlorophenyl)-1,7-dihydro-1,6,7-trimethyl-3-(phenylcarbonyloxy)-pyrrolo[3,4-e][1,4]diazepin-2(3H)-one], for which the Ki in assay [2] amounted to 6.7 nM. In addition, in assay [1], the responders at 100 mg/kg was 100%.

As for `COc1ccc(C(=O)OC2N=C(c3ccccc3Cl)c3c(cn(C)c3C)N(C)C2=O)cc1` (centres unmarked) [Example 10], the Ki in assay [2] worked out at 8.1 nM. The responders at 100 mg/kg in assay [1] was 100%.

Consider `Cc1c2c(cn1C)N(C)C(=O)C(OC(=O)C(C)C)N=C2c1ccccc1Cl` (centres unmarked) [Example 9, 5-(2-chlorophenyl)-1,7-dihydro-1,6,7-trimethyl-3-[(2-methyl-1-oxopropyl)oxy]-pyrrolo[3,4-e][1,4]diazepin-2(3H)-one], for which the Ki in assay [2] was 4.1 nM. Moreover, in assay [1], the ED50 was found to be 5 mg/kg and the responders at 100 mg/kg amounted to 100%.

With `Cc1c2c(cn1C)N(C)C(=O)C(OC(=O)C(C)(C)C)N=C2c1ccccc1Cl` (centres unmarked) [Example 2, 5-(2-chlorophenyl)-1,7-dihydro-1,6,7-trimethyl-3-(2,2-dimethylpropanoyloxy)-pyrrolo[3,4-e][1,4]diazepin-2(3H)-one], in assay [2], the Ki was determined as 17.2 nM. Further, the responders at 100 mg/kg in assay [1] is 100%.

Take `COC1N=C(c2ccccc2Cl)c2c(cn(C)c2C)N(C)C1=O.Cl.O` (centres unmarked) [Example 17, 5-(2-chlorophenyl)-1,7-dihydro-3-methoxy-1,6,7-trimethyl-pyrrolo[3,4-e][1,4]diazepin-2(3H)-one hydrochloride hydrate]: the Ki in assay [2] was determined as 23 nM. Also, in assay [1], the ED50 is 8 mg/kg and the responders at 100 mg/kg worked out at 100%.

`Cc1ccccc1C(=O)OC1N=C(c2ccccc2Cl)c2c(cn(C)c2C)N(C)C1=O` (centres unmarked) [Example 3]: the Ki in assay [2] is 1.7 nM. For the same molecule, in assay [3], the IC50 amounted to 35000 nM and the “displacement of ^3 H-GABA from its receptors” value is listed as “more than 50%”.

For the molecule `Cc1c2c(cn1C)N(C)C(=O)C(OC(=O)CCC(=O)O)N=C2c1ccccc1Cl` (centres unmarked) [Example 13, 1,4-butandioic acid 1-[5-(2-chlorophenyl)-1,3,7-trihydro-1,6,7-trimethyl-2-oxo-pyrrolo[3,4-e][1,4]diazepinyl]ester], the responders at 100 mg/kg in assay [1] is 100%.

Turning to `CCOC1N=C(c2ccccc2Cl)c2c(cn(C)c2C)N(C)C1=O` (centres unmarked) [Example 16, 5-(2-chlorophenyl)-3-ethoxy-1,7-dihydro-1,6,7-trimethyl-pyrrolo[3,4-e][1,4]diazepin-2(3H)-one hydrochloride hydrate], the Ki in assay [2] came to 24.6 nM. For the same molecule, the responders at 100 mg/kg in assay [1] was 100%.

Regarding `Cc1c2c(cn1C)N(C)C(=O)C(OC(=O)c1ccc(-c3ccccc3)cc1)N=C2c1ccccc1Cl` (centres unmarked) [Example 11], the responders at 100 mg/kg in assay [1] is 100%.

Regarding `CCCC(=O)OC1N=C(c2ccccc2)c2c(cn(C)c2C)NC1=O` (centres unmarked) [Example 8, 1,7-dihydro-6,7-dimethyl-3-[(1-oxobutyl)oxy]-5-phenyl-pyrrolo[3,4-e][1,4]diazepin-2(3H)-one], the responders at 100 mg/kg in assay [1] turned out to be 100%.

Consider `CCOC(=O)CCCNC(=O)CCC(=O)OC1N=C(c2ccccc2)c2c(cn(C)c2C)NC1=O` (centres unmarked) [Example 15, hydrochloride], for which, in assay [2], the Ki is 38.9 nM. Also, in assay [1], the responders at 100 mg/kg was determined as 100%. For the same molecule, in assay [3], the IC50 was found to be 3000 nM and the “displacement of ^3 H-GABA from its receptors” value is given as “more than 50%”.
